Reference: patent publication US7968526B2, “Antisense oligonucleotides directed to ribonucleotide reductase R2 and uses thereof in the treatment of cancer” (Lorus Therapeutics Inc., priority 2003, dated 2011)

What was measured:
[1] = test system: SU.86.86 human pancreatic cancer cells; experiment: SU.86.86 pancreatic tumour growth in CD-1 nude mice (3.6); assay type: in vivo, human cells in mice
Experimental: Treatments lasted for 14 days thereafter. Antitumour activities were estimated by the inhibition of tumour volume, which was measured with a caliper on four different occasions over the treatment period. Each point represents mean tumour volume calculated from 5 animals per experimental group. […] Control animals (control) received saline alone for the same period. At the end of the treatments, the animals were sacrificed, tumours were excised and their weights were measured. Each bar represents mean tumour weight calculated from 6 animals per experimental group. […] Treatments lasted for 24 days thereafter. Antitumour activities were estimated by the inhibition of tumour volume, which was measured with a caliper at two-day intervals over the treatment period. Each point represents mean tumour volume calculated from 4 animals per experimental group. […] Treatments lasted for 24 days thereafter. Antitumour activities were estimated by the inhibition of tumour volume, which was measured with a caliper at two-day intervals over the treatment period. Each point represents mean tumour volume calculated from 4 animals per experimental group. […] Each point represents mean tumour volume calculated from 5 animals per experimental group. […] Antitumour activities were estimated by the inhibition of tumour volume, which was measured with a caliper on four different occasions over 16-day period. Each point represents mean tumour volume calculated from 5 animals per experimental group. […] Antitumour activities were estimated by the inhibition of tumour volume, which was measured with a caliper at two-day intervals over the treatment period. Each point represents mean tumour volume calculated from 5 animals per experimental group. […] Antitumour activities were estimated by the inhibition of tumour volume, which was measured with a caliper at various time intervals over the span of 30 days. Each point represents mean tumour volume calculated from 6 animals per experimental group. […] Antitumour activities were estimated by the inhibition of tumour volume, which was measured with a caliper. […]

[2] = test system: MDA-CDDP-S4 human in vivo-selected Cisplatin-resistant breast adenocarcinoma cells; experiment: MDA-CDDP-S4 Cisplatin-resistant breast adenocarcinoma, fat pad, SCID mice (2.3); design: species or system human cells in mice
Experimental: BxPC-3 is a gemcitabine resistant call line. […] Gemcitabine was administered intravenously every three days at a dose of 100 mg/kg. Antitumour activities were estimated by the inhibition of tumour volume, which was measured with caliper. Each point represents mean tumour volume calculated from 10 animals per experimental group. […] Hela S3 is a hydroxyurea resistant cell line. […] Hydroxyurea was administered intraperitoneally every day at a dose of 250 mg/kg for 10 days. Cisplatin was administered intravenously once a week for three weeks at a dose of 4 mg/kg. Antitumour activities were estimated by the inhibition of tumour volume, which was measured with caliper. Each point represents mean tumour volume calculated from 10 animals per experimental group. […] Cisplatin was administered intravenously once a week for three weeks at a dose of 4 mg/kg. Taxol was administered intravenously once a week for three weeks at a dose of 10 mg/kg. Antitumour activities were estimated by the inhibition of tumour volume, which was measured with caliper. Each point represents mean tumour volume calculated from 10 animals per experimental group. […] Taxol was administered i.p. once a week at a dose of 10 mg/kg. Antitumour activities were estimated by the inhibition of tumour volume (FIG. 12A), which was measured with calipers. Each point represents mean tumour volume calculated from 10 animals per experimental group. Animals were sacrificed and tumour weights taken at the end of the study (FIG. 12C). […] Cisplatin was administered intravenously once a week for four weeks at a dose of 4 mg/kg. Taxol was administered intravenously once a week for four weeks at a dose of 20 mg/kg. Antitumour activities were estimated by the inhibition of tumour volume, which was measured with caliper. Each point represents mean tumour volume calculated from 9-10 animals per experimental group. […] Cisplatin was administered intravenously once a week for four weeks at a dose of 4 mg/kg. Antitumour activities were estimated by the inhibition of tumour volume, which was measured with caliper. Each point represents mean tumour volume calculated from 10 animals per experimental group. At the end of the study the animals were sacrificed and tumours weighed. […] Taxol was administered i.p. once a week at a dose of 10 mg/kg. Anti-tumour activity was estimated by the inhibition of tumour volume, which was measured with caliper. Each point represents mean tumour volume calculated from 10 animals per experimental group. In addition animals were sacrificed and tumour weights taken at the end of the study. […] CPT-11 was administered i.p. for 5 days at a dose of 20 mg/kg/day. Antitumour activities were estimated by the inhibition of tumour volume, which was measured with caliper. Each point represents mean tumour volume calculated from 10 animals per experimental group. Tumour weights were measured after animals were sacrificed at the end of the treatment. These cells are not resistant to CPT-11 which was used as a positive control.

## 5′-GGCTAAATCGCTCCACCAAG-3′ (all phosphorothioate, sugars by position and methylation of C not given here) [SEQ ID NO: 1, fully phosphorothioated antisense oligonucleotide that hybridizes to the coding region of R2 mRNA]
[1]; Human Pancreatic Adenocarcinoma
  Inhibition of tumour weight: ~65%
[1]; Human Pancreatic Adenocarcinoma, up to 39 days after tumour implantation
  Inhibition of tumour growth: Complete inhibition of tumour growth up to 39
[1]; SU.86.86, CD-1 nude mice, 10 mg/kg i.v. every other day, 34 days, two batches
  Inhibitory effect on tumour growth (tumour volume, FIG. 19): strong inhibitory effects on the growth of human pancreatic carcinoma
[2]; MDA-CDDP-S4 (breast), Cisplatin resistant, SCID, SEQ ID NO:1 10 mg/kg i.v. every other day 9 times, Taxol 10 mg/kg, Cisplatin 4 mg/kg i.v. weekly x3
  Tumour weight as % of saline control: 32%
[2]; MDA-CDDP-S4 Cisplatin-resistant, SCID mice, SEQ ID NO:1 10 mg/kg i.v. every other day, Cisplatin 4 mg/kg, Taxol 10 mg/kg i.v. weekly
  Antitumour effect (FIG. 11): significant reduction of tumour weight compared to saline control
